Test results published in ChEMBL document CHEMBL5260835, “Therapeutic potential of quercetin as a cardiovascular agent” (2018).

Legend:
[1] = test system: Rattus norvegicus; experiment: Hypotensive effect in rat at 100 nmol/kg,po; format: functional
[2] = species on record: Oryctolagus cuniculus; experiment: Cardioprotective activity in rabbit model assessed as resistance relaxation at 8 uM; format: functional; set-up: scale not given: the % may be the effect or the level left
[3] = species on record: Mus musculus; experiment: Effect on triglyceride level in serum of high fat diet induced mouse model assessed as reduction in triglycerides level relative to control; format: functional; set-up: scale not given: the % may be the effect or the level left
[4] = species on record: Oryctolagus cuniculus; experiment: Cardioprotective activity in rabbit model assessed as conductivity relaxation at 5.6 uM; format: functional; set-up: scale not given: the % may be the effect or the level left
[5] = species on record: Mus musculus; experiment: Antiatherosclerotic activity in Apoe-/- mouse assessed as attenuation of coronary artery illness relative to control; format: functional
[6] = species on record: Mus musculus; experiment: Effect on linoleic level in serum of high fat diet induced mouse model assessed as reduction in linoleic level relative to control; format: functional; set-up: scale not given: the % may be the effect or the level left
[7] = test system: Mus musculus; experiment: Cardioprotection in […] assessed as decrease in mean arterial pressure at 5 to 10 mg/kg, po measured after 13 weeks relative control; format: functional; set-up: scale not given: the % may be the effect or the level left; conditions: dose 5-10 mg/kg
[8] = species on record: Oryctolagus cuniculus; experiment: Cardioprotective activity in rabbit model assessed as conductivity relaxation at 30 uM; format: functional; set-up: scale not given: the % may be the effect or the level left
[9] = species on record: Oryctolagus cuniculus; experiment: Cardioprotective activity in rabbit model assessed as conductivity relaxation at 8 uM; format: functional; set-up: scale not given: the % may be the effect or the level left
[10] = species on record: Mus musculus; experiment: Effect on palmitic level in serum of high fat diet induced mouse model assessed as reduction in palmitic level relative to control; format: functional; set-up: scale not given: the % may be the effect or the level left
[11] = species on record: Mus musculus; experiment: Effect on oleic level in serum of high fat diet induced mouse model assessed as reduction in oleic level relative to control; format: functional; set-up: scale not given: the % may be the effect or the level left
[12] = species on record: Rattus norvegicus; experiment: Activation of rat Na(+)/K(+) ATPase assessed as increase in maximum velocity relative to control
[13] = species on record: Oryctolagus cuniculus; experiment: Cardioprotective activity in rabbit model assessed as resistance relaxation at 30 uM; format: functional; set-up: scale not given: the % may be the effect or the level left
[14] = species on record: Oryctolagus cuniculus; experiment: Cardioprotective activity in rabbit model assessed as resistance relaxation at 5.6 uM; format: functional; set-up: scale not given: the % may be the effect or the level left

| Compound | Activity [1] [mmHg] | Activity [2] [%] | Activity [3] [%] | Activity [4] [%] | Activity [5] [%] | Activity [6] [%] | Activity [7] [%] | Activity [8] [%] | Activity [9] [%] | Activity [10] [%] | Activity [11] [%] | Activity [12] [%] | Activity [13] [%] | Activity [14] [%] |
| --- | --- | --- | --- | --- | --- | --- | --- | --- | --- | --- | --- | --- | --- | --- |
| C[C@H](CS)C(=O)N1CCC[C@H]1C(=O)O [CAPTOPRIL] | 29.7 | – | – | – | – | – | – | – | – | – | – | – | – | – |
| O=c1c(O)c(-c2ccc(O)c(O)c2)oc2cc(O)cc(O)c12 [QUERCETIN] | – | -47 | 14 | -20 | 86 | 9 | -12 | -72 | -3.2 | 9 | 9 | 15 | -82 | -3.2 |
